Source: ChEMBL document CHEMBL4507276 (2021)

Tests used:
Conditions in all cases: Compound concentration 1000.0 nM
[1] = target: SRSF protein kinase 3 (Homo sapiens) (UniProt Q9UPE1)
[2] = target: T1, NUAK family SNF1-like kinase 1 (Homo sapiens) (UniProt O60285)
T1 sequence (whole entry): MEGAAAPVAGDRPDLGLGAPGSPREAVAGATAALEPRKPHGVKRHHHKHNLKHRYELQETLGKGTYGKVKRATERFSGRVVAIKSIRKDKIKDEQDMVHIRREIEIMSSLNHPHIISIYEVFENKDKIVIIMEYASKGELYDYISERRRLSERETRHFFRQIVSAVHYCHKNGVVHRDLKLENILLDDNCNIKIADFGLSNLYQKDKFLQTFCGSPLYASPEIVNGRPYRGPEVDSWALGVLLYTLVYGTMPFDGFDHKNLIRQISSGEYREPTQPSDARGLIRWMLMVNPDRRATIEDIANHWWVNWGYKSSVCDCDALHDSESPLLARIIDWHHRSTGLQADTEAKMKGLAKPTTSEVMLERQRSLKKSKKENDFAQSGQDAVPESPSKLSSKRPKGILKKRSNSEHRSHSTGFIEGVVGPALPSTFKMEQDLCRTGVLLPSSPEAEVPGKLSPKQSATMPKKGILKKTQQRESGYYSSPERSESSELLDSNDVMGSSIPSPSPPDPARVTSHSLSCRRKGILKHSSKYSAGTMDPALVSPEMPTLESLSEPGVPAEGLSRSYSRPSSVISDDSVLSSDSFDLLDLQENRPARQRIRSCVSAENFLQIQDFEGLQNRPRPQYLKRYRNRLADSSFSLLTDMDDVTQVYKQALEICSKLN

[3] = target: Ribosomal protein S6 kinase alpha-6 (Homo sapiens) (UniProt Q9UK32)
[4] = test system: Leucine-rich repeat serine/threonine-protein kinase 2 (Homo sapiens), Q5S007 [G2019S]
[5] = target: Dual serine/threonine and tyrosine protein kinase (Homo sapiens) (UniProt Q6XUX3)
[6] = test system: Tyrosine-protein kinase ABL1 (Homo sapiens), P00519 [F317I]
[7] = target: T2, cGMP-dependent protein kinase 1 (Homo sapiens) (UniProt Q13976)
T2 sequence (whole entry): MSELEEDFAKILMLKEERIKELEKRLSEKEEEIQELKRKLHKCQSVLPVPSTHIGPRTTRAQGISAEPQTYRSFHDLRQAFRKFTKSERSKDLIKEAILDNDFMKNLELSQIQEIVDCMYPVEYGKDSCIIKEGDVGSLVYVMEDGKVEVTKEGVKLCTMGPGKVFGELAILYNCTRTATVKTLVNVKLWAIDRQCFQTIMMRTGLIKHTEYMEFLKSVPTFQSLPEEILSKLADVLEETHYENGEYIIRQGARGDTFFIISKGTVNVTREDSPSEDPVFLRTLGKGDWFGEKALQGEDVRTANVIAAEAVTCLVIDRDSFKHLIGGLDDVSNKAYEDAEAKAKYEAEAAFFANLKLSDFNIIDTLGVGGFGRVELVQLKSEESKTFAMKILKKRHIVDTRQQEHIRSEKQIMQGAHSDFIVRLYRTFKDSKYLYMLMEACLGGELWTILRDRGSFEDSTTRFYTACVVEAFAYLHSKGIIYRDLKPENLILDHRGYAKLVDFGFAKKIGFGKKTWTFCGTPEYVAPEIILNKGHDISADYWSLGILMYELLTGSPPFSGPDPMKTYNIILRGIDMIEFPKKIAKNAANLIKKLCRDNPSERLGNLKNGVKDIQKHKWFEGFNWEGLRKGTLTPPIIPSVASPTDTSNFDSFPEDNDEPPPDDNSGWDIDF

[8] = target: Activin receptor type-1-like (Homo sapiens) (UniProt P37023)
[9] = target: T3, Ephrin type-B receptor 2 (Homo sapiens) (UniProt P29323)
T3 sequence (whole entry): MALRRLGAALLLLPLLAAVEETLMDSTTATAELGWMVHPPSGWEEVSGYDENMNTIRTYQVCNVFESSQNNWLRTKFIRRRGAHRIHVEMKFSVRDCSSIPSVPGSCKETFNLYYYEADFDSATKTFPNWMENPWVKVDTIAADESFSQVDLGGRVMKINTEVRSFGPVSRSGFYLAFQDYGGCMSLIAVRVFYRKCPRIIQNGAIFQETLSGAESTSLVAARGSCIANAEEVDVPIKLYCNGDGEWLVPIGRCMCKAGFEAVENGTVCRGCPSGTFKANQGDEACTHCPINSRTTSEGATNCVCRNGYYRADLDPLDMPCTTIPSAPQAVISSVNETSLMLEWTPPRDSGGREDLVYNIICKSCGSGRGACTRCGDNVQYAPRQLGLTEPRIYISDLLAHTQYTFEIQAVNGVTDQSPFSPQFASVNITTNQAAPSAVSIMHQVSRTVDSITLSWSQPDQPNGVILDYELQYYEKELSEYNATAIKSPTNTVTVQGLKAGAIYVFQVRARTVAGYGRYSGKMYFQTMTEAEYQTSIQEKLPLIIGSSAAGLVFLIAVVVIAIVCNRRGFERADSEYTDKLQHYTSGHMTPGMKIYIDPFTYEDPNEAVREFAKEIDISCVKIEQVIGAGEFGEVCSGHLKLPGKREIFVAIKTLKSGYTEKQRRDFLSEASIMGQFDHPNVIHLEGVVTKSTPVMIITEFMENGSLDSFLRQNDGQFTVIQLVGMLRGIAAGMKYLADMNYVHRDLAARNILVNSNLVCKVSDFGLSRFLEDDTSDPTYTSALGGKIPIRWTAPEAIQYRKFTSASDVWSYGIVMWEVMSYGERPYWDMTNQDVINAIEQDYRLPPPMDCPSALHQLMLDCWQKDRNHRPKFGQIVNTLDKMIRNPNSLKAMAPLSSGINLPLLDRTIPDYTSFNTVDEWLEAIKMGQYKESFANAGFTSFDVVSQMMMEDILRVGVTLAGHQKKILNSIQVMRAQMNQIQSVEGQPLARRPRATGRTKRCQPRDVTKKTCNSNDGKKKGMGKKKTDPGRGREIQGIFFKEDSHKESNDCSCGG

Measured: residual activity

Sequence of Activin receptor type-1-like (Homo sapiens) (P37023 whole entry): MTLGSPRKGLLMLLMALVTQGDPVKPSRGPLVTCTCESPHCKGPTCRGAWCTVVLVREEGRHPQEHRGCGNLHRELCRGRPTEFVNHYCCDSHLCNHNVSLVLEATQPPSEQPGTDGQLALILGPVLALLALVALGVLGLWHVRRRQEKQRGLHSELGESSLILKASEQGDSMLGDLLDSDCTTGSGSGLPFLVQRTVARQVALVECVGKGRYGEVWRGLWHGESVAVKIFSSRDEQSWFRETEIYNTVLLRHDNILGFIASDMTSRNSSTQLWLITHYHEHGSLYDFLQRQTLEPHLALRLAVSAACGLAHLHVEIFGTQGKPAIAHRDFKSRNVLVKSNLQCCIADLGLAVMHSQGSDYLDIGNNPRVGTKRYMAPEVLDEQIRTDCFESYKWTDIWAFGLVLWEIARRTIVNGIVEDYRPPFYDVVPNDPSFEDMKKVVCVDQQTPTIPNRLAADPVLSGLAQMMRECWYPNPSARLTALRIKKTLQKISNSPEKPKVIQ
Sequence of Tyrosine-protein kinase ABL1 (Homo sapiens), P00519 [F317I] (P00519 whole entry F317I): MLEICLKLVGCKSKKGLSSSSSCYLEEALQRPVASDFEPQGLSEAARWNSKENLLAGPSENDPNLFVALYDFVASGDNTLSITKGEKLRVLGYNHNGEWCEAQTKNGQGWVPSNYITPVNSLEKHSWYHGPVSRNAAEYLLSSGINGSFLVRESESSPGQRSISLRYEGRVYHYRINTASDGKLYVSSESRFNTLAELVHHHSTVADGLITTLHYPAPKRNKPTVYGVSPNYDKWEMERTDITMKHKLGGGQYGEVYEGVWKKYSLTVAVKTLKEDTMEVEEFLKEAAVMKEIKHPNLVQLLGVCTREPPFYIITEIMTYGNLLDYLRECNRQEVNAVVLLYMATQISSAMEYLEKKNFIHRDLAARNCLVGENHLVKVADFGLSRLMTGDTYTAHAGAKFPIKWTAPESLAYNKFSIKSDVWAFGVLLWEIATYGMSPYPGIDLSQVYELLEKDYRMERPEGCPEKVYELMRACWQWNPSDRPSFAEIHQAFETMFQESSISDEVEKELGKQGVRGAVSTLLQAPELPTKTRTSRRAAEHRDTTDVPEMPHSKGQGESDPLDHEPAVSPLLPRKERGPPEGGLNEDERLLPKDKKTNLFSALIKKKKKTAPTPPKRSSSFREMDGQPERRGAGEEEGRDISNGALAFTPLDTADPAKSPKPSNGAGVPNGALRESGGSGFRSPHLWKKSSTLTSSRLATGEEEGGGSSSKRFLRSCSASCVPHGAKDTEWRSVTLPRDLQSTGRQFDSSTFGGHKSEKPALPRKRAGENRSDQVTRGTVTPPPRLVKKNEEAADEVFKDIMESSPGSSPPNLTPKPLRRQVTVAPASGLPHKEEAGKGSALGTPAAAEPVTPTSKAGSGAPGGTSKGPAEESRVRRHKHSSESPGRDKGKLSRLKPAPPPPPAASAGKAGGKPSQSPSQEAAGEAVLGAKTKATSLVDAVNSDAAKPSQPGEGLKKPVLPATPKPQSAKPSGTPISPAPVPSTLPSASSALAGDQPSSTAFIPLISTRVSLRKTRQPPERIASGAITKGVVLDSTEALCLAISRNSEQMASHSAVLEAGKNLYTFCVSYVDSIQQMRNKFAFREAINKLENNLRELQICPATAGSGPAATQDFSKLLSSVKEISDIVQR
Sequence of SRSF protein kinase 3 (Homo sapiens) (Q9UPE1 whole entry): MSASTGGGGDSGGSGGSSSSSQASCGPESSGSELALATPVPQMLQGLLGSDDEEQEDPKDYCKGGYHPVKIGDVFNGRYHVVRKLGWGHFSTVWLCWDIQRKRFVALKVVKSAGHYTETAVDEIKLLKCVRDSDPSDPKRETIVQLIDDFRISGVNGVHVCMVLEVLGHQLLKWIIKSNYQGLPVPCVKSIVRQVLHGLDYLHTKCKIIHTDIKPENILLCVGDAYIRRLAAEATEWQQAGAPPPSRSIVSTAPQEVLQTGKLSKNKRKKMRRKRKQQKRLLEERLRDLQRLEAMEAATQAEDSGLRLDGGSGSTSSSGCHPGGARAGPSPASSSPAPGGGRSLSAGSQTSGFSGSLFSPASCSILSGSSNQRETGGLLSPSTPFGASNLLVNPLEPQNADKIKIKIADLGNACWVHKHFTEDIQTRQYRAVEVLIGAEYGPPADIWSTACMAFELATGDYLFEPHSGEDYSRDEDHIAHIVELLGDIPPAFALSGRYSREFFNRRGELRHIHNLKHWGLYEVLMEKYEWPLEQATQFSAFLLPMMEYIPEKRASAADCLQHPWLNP
Sequence of Dual serine/threonine and tyrosine protein kinase (Homo sapiens) (Q6XUX3 whole entry): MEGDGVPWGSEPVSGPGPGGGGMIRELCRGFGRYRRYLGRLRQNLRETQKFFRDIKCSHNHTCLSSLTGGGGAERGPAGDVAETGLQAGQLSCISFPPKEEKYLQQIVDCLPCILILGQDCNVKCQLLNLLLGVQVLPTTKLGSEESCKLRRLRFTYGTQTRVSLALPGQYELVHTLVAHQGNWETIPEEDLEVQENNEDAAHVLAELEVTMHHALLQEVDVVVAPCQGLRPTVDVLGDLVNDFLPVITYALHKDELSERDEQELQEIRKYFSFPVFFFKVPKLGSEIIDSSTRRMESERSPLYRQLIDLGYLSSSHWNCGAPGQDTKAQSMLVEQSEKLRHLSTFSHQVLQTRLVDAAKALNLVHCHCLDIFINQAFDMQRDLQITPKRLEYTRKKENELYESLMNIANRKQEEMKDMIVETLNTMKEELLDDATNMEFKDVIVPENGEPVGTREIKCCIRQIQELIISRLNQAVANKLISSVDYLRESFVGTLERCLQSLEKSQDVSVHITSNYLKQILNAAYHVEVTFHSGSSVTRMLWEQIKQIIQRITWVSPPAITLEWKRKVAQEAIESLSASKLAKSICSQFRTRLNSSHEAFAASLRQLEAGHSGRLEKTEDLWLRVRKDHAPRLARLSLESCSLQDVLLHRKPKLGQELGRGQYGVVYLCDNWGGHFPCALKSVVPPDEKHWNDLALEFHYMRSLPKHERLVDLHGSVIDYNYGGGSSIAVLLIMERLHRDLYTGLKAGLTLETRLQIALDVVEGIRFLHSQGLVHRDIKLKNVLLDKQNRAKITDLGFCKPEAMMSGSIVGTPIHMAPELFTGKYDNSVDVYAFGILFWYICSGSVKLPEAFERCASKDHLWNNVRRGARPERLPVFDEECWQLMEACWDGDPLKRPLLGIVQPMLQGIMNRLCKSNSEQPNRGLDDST
Sequence of Ribosomal protein S6 kinase alpha-6 (Homo sapiens) (Q9UK32 whole entry): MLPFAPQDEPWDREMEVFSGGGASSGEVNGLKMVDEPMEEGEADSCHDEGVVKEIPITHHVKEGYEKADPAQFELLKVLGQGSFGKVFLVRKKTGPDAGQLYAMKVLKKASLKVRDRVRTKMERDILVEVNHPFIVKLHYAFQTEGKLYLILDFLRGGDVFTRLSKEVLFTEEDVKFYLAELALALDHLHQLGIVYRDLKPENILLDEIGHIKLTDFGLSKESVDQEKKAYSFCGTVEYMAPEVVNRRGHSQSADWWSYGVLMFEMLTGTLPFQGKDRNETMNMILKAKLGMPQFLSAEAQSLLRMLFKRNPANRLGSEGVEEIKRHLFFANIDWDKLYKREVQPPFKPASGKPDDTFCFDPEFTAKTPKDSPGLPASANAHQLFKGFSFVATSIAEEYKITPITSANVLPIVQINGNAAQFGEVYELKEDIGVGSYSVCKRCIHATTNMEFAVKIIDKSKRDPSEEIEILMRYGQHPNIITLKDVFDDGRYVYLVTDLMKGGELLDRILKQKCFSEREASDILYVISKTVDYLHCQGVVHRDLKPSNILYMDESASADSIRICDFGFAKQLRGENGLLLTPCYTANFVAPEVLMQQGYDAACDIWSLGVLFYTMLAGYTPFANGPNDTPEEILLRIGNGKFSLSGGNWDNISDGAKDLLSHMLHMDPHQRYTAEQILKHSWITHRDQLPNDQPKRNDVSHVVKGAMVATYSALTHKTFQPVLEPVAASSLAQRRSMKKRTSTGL

CN(C)C(=O)Cn1cc(-c2nc(C3(c4ccc(-c5cnc(N)nc5)cc4)CC3)no2)cn1 [BI 0153]
inactive: [1] 100% | [2] 82% | [3] 83% | [4] 100% | [5] 94% | [6] 90% | [7] 89% | [8] 86% | [9] 70%

CN(C)C(=O)Cn1cc(-c2nc([C@@](C)(c3ccc(-c4cnc(N)nc4)cc3)C3CC3)no2)cn1 [BI 665915]
inactive: [1] 85% | [2] 100% | [3] 96% | [4] 100% | [5] 57% | [6] 100% | [7] 100% | [8] 84% | [9] 87%
